The text below walks through data of patent US20240279202A1 (NURIX THERAPEUTICS, INC., priority 2021, published 2024).

Each structure is given as a SMILES string. Counter-ions that a name gives are not always drawn. Like-named read-outs stand apart in the source and are kept apart here.

The nature of this data set: Mouse PK analysis (blood/plasma concentration after oral administration). The data set is classed as in vivo. The following applies: mice; for AUC(0-t) / Cmax / Tmax / concentration at 1 h / concentration at 2 h / concentration at 6 h: mouse. The procedure: Compounds 1, 3, 7, and 42 were formulated and administered at 90 mg/kg to mice by oral gavage (PO). Blood was collected at defined time points (after 1, 2, and 6 hours) after compounds administration to determine PK parameters. Concentration increased through 6 hours. Six hours later mice were sacrificed and splenocytes were isolated and used to prepare protein lysates. Total protein levels were determined in the lysates using the BCA assay according to standard methods. Equal amounts of protein were then analyzed by Western blot to determine the level of ITK expression in each sample. ITK band intensities were measured using Alpha View software and the percent of ITK remaining in each test animal was determined relative to the mean of ITK levels in vehicle control samples.
Compounds 16, 17, and 18 were administered to mice orally. After 6 hours or 24 hours, splenocytes cells were harvested. ITK was evaluated by Western blotting. Plasma concentrations were determined by LC/MS/MS. Plasma samples were protein precipitated by addition of 100 μl of acetonitrile containing 50 ng/ml of internal standard. The resulting mixture was vortexed and centrifuged at 4000 RPM for 5 minutes. An aliquot of the resultant supernatant (75 μl) was added to 75 μl of 0.1% formic acid in water to constitute the final sample for injection. Samples were injected on a Shimadzu Exion LC Binary Gradient AD Pump HLPC system connected to a Sciex QTRAP 6500+mass spectrometer. Five μl of sample was injected onto a Waters Acquity UPLC BEH C18 column 130A (2.1×30 mm, […]) at 40° C. utilizing a flow rate of 700 μl/minute. Mobile Phase A was 0.1% formic acid in water and mobile phase B was 0.1% formic acid in acetonitrile. A linear gradient of 15-95% B over 1.0 minute was used. The mass spectrometer was operated in positive ion electrospray mode with multiple reaction monitoring for maximum sensitivity. Sciex Analyst software (version 1.6.3) was used for LC/MS/MS instrument control and acquisition. Compound concentration was determined against a standard curve of internal standard versus compound peak area ratio. Noncompartmental PK parameters were determined using […] software (version 8.2.0.4383) from Certara. Plasma concentrations from the LC/MS/MS analyses, dose, route of administration, and desired units were utilized for PK parameter calculations. […] FIG. 4C provides the concentration over time of compound 17 following in vivo oral administration in the 6 hour and 24 hour assays.
Cmax, Tmax and AUClast were all calculated using a WinNonLin Phoenix 64 v 8.2.0.4383. Using non-compartmental analysis, Tmax, Cmax and AUClast were determined as follows: • Tmax—Time of maximum observed concentration. • Cmax—Maximum observed concentration, occurring at time Tmax, as defined above. • AUClast—Area under the curve from the time of dosing to the time of the last measurable (positive) concentration (Tlast).

[1] abbreviates: plasma, oral, 90 mg/kg, 1 h, read-out: Cal. Conc. Total (μM) 1 h.
Setting [2] is: plasma, oral, 90 mg/kg, 2 h, read-out: Cal. Conc. Total (μM) 2 h.
[3] abbreviates: plasma, oral, 90 mg/kg, 6 h, read-out: Cal. Conc. Total (μM) 6 h.

One may read the AUC(0-t) as exposure summed from dosing to a finite time, without extrapolation to infinity. Lower therefore signals low exposure. By Cmax is commonly meant the peak of the concentration-time curve. By Tmax is commonly meant the time from dosing to the highest level.

Turning to `CN(c1ccc2cc(-c3n[nH]c4c3C[C@@H]3C(F)(F)[C@]3(C)C4)[nH]c2c1)C(=O)[C@H]1C[C@]2(CCN(c3ccc4c(c3)C(=O)N([C@H]3CCC(=O)NC3=O)C4=O)C2)C1` (racemic) [Compound 71b, (2s,4s)-N-[2-[(4aS,5aR)-5,5-difluoro-5a-methyl-1H,4H,4aH,6H-cyclopropa[f]indazol-3-yl]-1H-indol-6-yl]-6-[2-[(3RS)-2,6-dioxopiperidin-3-yl]-1,3-dioxoisoindol-5-yl]-N-methyl-6-azaspiro[3.4]octane-2-carboxamide], where the note is “oral, plasma”, the AUC(0-t) is 0.78 µM·h, the Cmax is 223 nM and the time to peak (Tmax) was 1.5 h.

`CN(C(=O)CCC1CCN(c2ccc3c(c2)C(=O)N(C2CCC(=O)NC2=O)C3=O)C1)c1ccc2cc(-c3n[nH]c4c3CCC(C)(C)C4)[nH]c2c1` (stereo not shown) [Compound 1, N-(2-(6,6-dimethyl-4,5,6,7-tetrahydro-1H-indazol-3-yl)-1H-indol-6-yl)-3-(1-(2-(2,6-dioxopiperidin-3-yl)-1,3-dioxoisoindolin-5-yl)pyrrolidin-3-yl)-N-methylpropanamide]: under setting [1], the concentration at 1 h was found to be 1.6 µM. For the same compound, the concentration at 2 h under setting [2] is 1.7 µM. Under setting [3], the concentration at 6 h amounted to 0.7 µM.

Regarding `CN(C(=O)CCN1CCN(c2ccc3c(c2)C(=O)N(C2CCC(=O)NC2=O)C3=O)CC1)c1ccc2cc(-c3n[nH]c4c3CCC(C)(C)C4)[nH]c2c1` (stereo not shown) [Compound 2, N-(2-(6,6-dimethyl-4,5,6,7-tetrahydro-1H-indazol-3-yl)-1H-indol-6-yl)-3-(4-(2-(2,6-dioxopiperidin-3-yl)-1,3-dioxoisoindolin-5-yl)piperazin-1-yl)-N-methylpropanamide], under setting [1], the concentration at 1 h was 0.041 µM. Further, the concentration at 2 h under setting [2] was found to be 0.039 µM. Moreover, the concentration at 6 h under setting [3] came out at 0.059 µM.

Regarding `C[C@@H](C(=O)N(C)c1ccc2cc(-c3n[nH]c4c3CCC(C)(C)C4)[nH]c2c1)N1CCN(CC2CCN(c3cccc4c3n(C)c(=O)n4C3CCC(=O)NC3=O)CC2)CC1` (stereo partly drawn) [Compound 3, (2S)—N-(2-(6,6-dimethyl-4,5,6,7-tetrahydro-1H-indazol-3-yl)-1H-indol-6-yl)-2-(4-((1-(1-(2,6-dioxopiperidin-3-yl)-3-methyl-2-oxo-2,3-dihydro-1H-benzo[d]imidazol-4-yl)piperidin-4-yl)methyl)piperazin-1-yl)-N-methylpropanamide], for the setting “90 mg/kg PO, blood, timepoint 1 h, read-out: Concentration (μM), mean calculated”, the concentration at 1 h was 0.228 µM. Also, for the setting “90 mg/kg PO, blood, timepoint 2 h, read-out: Concentration (μM), mean calculated”, the concentration at 2 h was 0.702 µM. Moreover, the concentration at 6 h (90 mg/kg PO, blood, timepoint 6 h, read-out: Concentration (μM), mean calculated) is 2.71 µM. For the setting “oral, plasma”, the exposure AUC(0-t) is 1.99 µM·h, the peak level (Cmax) was 471 nM and the time of peak concentration (Tmax) was found to be 4 h.

For `C[C@@H](C(=O)N(C)c1ccc2cc(-c3n[nH]c4c3CCC(C)(C)C4)[nH]c2c1)N1CCN(C[C@@H]2CCN(c3ccc4c(c3)n(C)c(=O)n4C3CCC(=O)NC3=O)C2)CC1` (stereo partly drawn) [Compound 4, (2S)—N-(2-(6,6-dimethyl-4,5,6,7-tetrahydro-1H-indazol-3-yl)-1H-indol-6-yl)-2-(4-(((3S)-1-(1-(2,6-dioxopiperidin-3-yl)-3-methyl-2-oxo-2,3-dihydro-1H-benzo[d]imidazol-5-yl)pyrrolidin-3-yl)methyl)piperazin-1-yl)-N-methylpropanamide], where the note is “oral, plasma”, the area under the curve AUC(0-t) stood at 0.54 µM·h, the concentration peaked (Cmax) at 127 nM and the Tmax turned out to be 2 h.

Consider `C[C@@H](C(=O)N(C)c1ccc2cc(-c3n[nH]c4c3CCC(C)(C)C4)[nH]c2c1)N1CCN(C[C@H]2CCN(c3ccc4c(c3)n(C)c(=O)n4C3CCC(=O)NC3=O)C2)CC1` (stereo partly drawn) [Compound 5, (2S)—N-(2-(6,6-dimethyl-4,5,6,7-tetrahydro-1H-indazol-3-yl)-1H-indol-6-yl)-2-(4-(((3R)-1-(1-(2,6-dioxopiperidin-3-yl)-3-methyl-2-oxo-2,3-dihydro-1H-benzo[d]imidazol-5-yl)pyrrolidin-3-yl)methyl)piperazin-1-yl)-N-methylpropanamide], for which, for the setting “oral, plasma”, the area under the curve AUC(0-t) worked out at 0.7 µM·h, the highest level (Cmax) was 188 nM and the Tmax stood at 4 h.

As for `C[C@@H](C(=O)N(C)c1ccc2cc(-c3n[nH]c4c3CCC(C)(C)C4)[nH]c2c1)N1CCN(CC2CCN(c3ccc(C(=O)NC4CCC(=O)NC4=O)nc3)CC2)CC1` (stereo partly drawn) [Compound 7, 5-(4-((4-((S)-1-((2-(6,6-dimethyl-4,5,6,7-tetrahydro-1H-indazol-3-yl)-1H-indol-6-yl)(methyl)amino)-1-oxopropan-2-yl)piperazin-1-yl)methyl)piperidin-1-yl)-N-(2,6-dioxopiperidin-3-yl)picolinamide], under setting [1], the concentration at 1 h amounted to 0.2 µM. In addition, under setting [2], the concentration at 2 h was found to be 0.29 µM. In addition, under setting [3], the concentration at 6 h was found to be 0.45 µM.

In the case of `C[C@@H](C(=O)N(C)c1ccc2cc(-c3n[nH]c4c3C[C@@H]3C(F)(F)[C@]3(C)C4)[nH]c2c1)N1CCN(C[C@H]2CCN(c3ccc4c(c3)C(=O)N(C3CCC(=O)NC3=O)C4=O)C2)CC1` (stereo partly drawn) [Compound 9, (2S)—N-(2-((4aS,5aR)-5,5-difluoro-5a-methyl-1,4,4a,5,5a,6-hexahydrocyclopropa[f]indazol-3-yl)-1H-indol-6-yl)-2-(4-(((3R)-1-(2-(2,6-dioxopiperidin-3-yl)-1,3-dioxoisoindolin-5-yl)pyrrolidin-3-yl)methyl)piperazin-1-yl)-N-methylpropanamide], where the note is “oral, plasma”, the area under the curve AUC(0-t) was 0.154 µM·h, the peak concentration (Cmax) turned out to be 46 nM and the time to peak (Tmax) was 6 h.

Regarding `C[C@@H](C(=O)N(C)c1ccc2cc(-c3n[nH]c4c3CCC(C)(C)C4)[nH]c2c1)N1CCN(C[C@H]2CCN(c3ccc4c(c3)CN(C3CCC(=O)NC3=O)C4=O)C2)CC1` (stereo partly drawn) [Compound 12, (2S)—N-(2-(6,6-dimethyl-4,5,6,7-tetrahydro-1H-indazol-3-yl)-1H-indol-6-yl)-2-(4-(((3R)-1-(2-(2,6-dioxopiperidin-3-yl)-1-oxoisoindolin-5-yl)pyrrolidin-3-yl)methyl)piperazin-1-yl)-N-methylpropanamide], where the note is “oral, plasma”, the AUC(0-t) was 0.198 µM·h, the Cmax came out at 80.3 nM and the time to peak (Tmax) was 1 h.

Regarding `Cn1c(=O)n(C2CCC(=O)NC2=O)c2cccc(N3CCC(CN4CCC5(CC4)CCN(c4ccc6cc(-c7n[nH]c8c7CCC(C)(C)C8)[nH]c6c4)C5=O)CC3)c21` (stereo not shown) [Compound 13, 3-(4-(4-((2-(2-(6,6-dimethyl-4,5,6,7-tetrahydro-1H-indazol-3-yl)-1H-indol-6-yl)-1-oxo-2,8-diazaspiro[4.5]decan-8-yl)methyl)piperidin-1-yl)-3-methyl-2-oxo-2,3-dihydro-1H-benzo[d]imidazol-1-yl)piperidine-2,6-dione], where the note is “oral, plasma”, the area under the curve AUC(0-t) is 0.927 µM·h, the peak concentration (Cmax) came out at 251 nM and the time to peak (Tmax) was determined as 4 h.

On to `C[C@@]12Cc3[nH]nc(-c4cc5ccc(N6CCC7(CCN(Cc8ccc9c(c8)C(=O)N(C8CCC(=O)NC8=O)C9=O)CC7)C6=O)cc5[nH]4)c3C[C@@H]1C2(F)F` (stereo partly drawn) [Compound 15, 5-((2-(2-((4aS,5aR)-5,5-difluoro-5a-methyl-1,4,4a,5,5a,6-hexahydrocyclopropa[f]indazol-3-yl)-1H-indol-6-yl)-1-oxo-2,8-diazaspiro[4.5]decan-8-yl)methyl)-2-(2,6-dioxopiperidin-3-yl)isoindoline-1,3-dione hydrochloride], for which, where the note is “oral, plasma”, the AUC(0-t) was 3.14 µM·h, the maximum concentration (Cmax) is 743 nM and the Tmax is 4 h.

As for `Cn1c(=O)n(C2CCC(=O)NC2=O)c2cccc(N3CCC(CN4CCC5(CC4)CCN(c4ccc6cc(-c7n[nH]c8c7C[C@@H]7C(F)(F)[C@]7(C)C8)[nH]c6c4)C5=O)CC3)c21` (stereo partly drawn) [Compound 16, 3-(4-(4-((2-(2-((4aS,5aR)-5,5-difluoro-5a-methyl-1,4,4a,5,5a,6-hexahydrocyclopropa[f]indazol-3-yl)-1H-indol-6-yl)-1-oxo-2,8-diazaspiro[4.5]decan-8-yl)methyl)piperidin-1-yl)-3-methyl-2-oxo-2,3-dihydro-1H-benzo[d]imidazol-1-yl)piperidine-2,6-dione], the “detected in plasma through (FIG. 4B)” value (oral, plasma LC/MS/MS) worked out at 6 h. Besides, for the setting “oral, plasma”, the AUC(0-t) stood at 1.53 µM·h, the Cmax worked out at 585 nM and the Tmax was 6 h.
